# Measurements from US20200022963A1, “PHARMACEUTICAL COMPOSITION COMPRISING BETAHISTINE” (Otolanum AG, priority 2017, published 2020).
# Assay: Pharmacokinetic profile after single oral, intranasal and intravenous betahistine in beagle dogs, Example 5
# Type: in vivo
# Details: female, beagle, dog, in vivo; for concentration at 0 h / concentration at 5 min / concentration at 0.167 h / concentration at 0.333 h / concentration at 0.5 h / concentration at 1 h / concentration at 2 h / concentration at 3 h / concentration at 6 h / concentration at 24 h: Betahistine Plasma Concentration
# Experimental: In this study, the pharmacokinetic profile of betahistine was evaluated after a single dose administration of betahistine in male and female beagle dogs (age 5-7 months; weight of 5-11 kg, within a range of 3 kg for each sex) for three routes of administration: oral, intranasal, and intravenous.
# On Day 1 of the study, betahistine (BH) was delivered orally at a dose of 12 mg/kg, 24 mg/kg, or 48 mg/kg. Each treatment group comprised 8 animals (4 males and 4 females). For pharmacokinetic assessment, plasma samples were collected prior to dosing, and then at 5, 10, 20 and 30 min, 1, 2, 3, 6, 24 hours after dosing.
# On Day 8 of the study, the animals that received oral BH at a dose of 12 mg/kg were administered the test betahistine composition intranasally at a dose of 40 mg betahistine dihydrochloride; the animals that received oral BH at a dose of 24 mg/kg were administered the test betahistine composition intranasally at a dose of 80 mg betahistine dihydrochloride; and the animals that received oral BH at a dose of 48 mg/kg were administered the test betahistine composition intranasally at a dose of 120 mg betahistine dihydrochloride. The test betahistine composition was delivered intranasally in a single dose via an Aptar nasal spray pump device at a total dose level of 40, 80 and 120 mg of betahistine dihydrochloride. Plasma samples were collected prior to dosing, and then at 5, 10, 20 and 30 min, 1, 2, 3, 6, 24 hours after dosing.
# On Day 15 of the study, the animals that received oral BH at a dose of 12 mg/kg and the test betahistine composition intranasally at a dose of 40 mg betahistine dihydrochloride were administered a bolus intravenous injection of betahistine at a dose of 0.44 mg/kg. Plasma samples were collected prior to dosing, and then at 5, 10, 20 and 30 min, 1, 2, 3, 6, 24 hours after dosing.
# Betahistine 13CD3 dihydrochloride and 2-pyridylacetic acid-D4 hydrochloride were used as respective internal standards. The calibration range for betahistine was 0.05-250 ng/mL and for 2-PAA 2.00-3000 ng/mL using a plasma sample volume of 0.50 mL.
# For determination of betahistine, the method involved liquid-liquid extraction, for 2-PAA, the method involved protein precipitation. Plasma samples were prepared for betahistine by extraction under basic conditions with an organic solvent, then the organic phase was dried, reconstituted and transferred for LC/MS-MS analysis. […] Sample analysis was performed using reversed phase chromatography.
# [1] = inhaled or intranasal, 17.7 mg/kg
compound,measurement,setting,value
CNCCc1ccccn1 [betahistine],AUC(0-t)/D,[1],16.4 ± 0.479 hr*ng/mL/(mg/kg)
same,Cmax,[1],1330 ng/mL
same,Cmax/D,[1],75.1 ± 17.0 ng/mL/(mg/kg)
same,Intranasal AUC/dose,[1],16.4 (h · ng/mL)/(mg/kg)
same,Tmax,[1],4.8 min
same,AUC(0-t),"inhaled or intranasal, 17.7 mg/kg, AUC(0-6)",277 ± 7.99 ng·h/mL
same,AUC(0-t),"inhaled or intranasal, 17.7 mg/kg, AUC(0-t)",290 ± 8.47 ng·h/mL
same,AUC(0-inf),"iv, 0.44 mg/kg",14.3 ng·h/mL
same,AUC(0-t)/D,"iv, 0.44 mg/kg",60.3 ± 40.0 hr*ng/mL/(mg/kg)
same,Cmax,"iv, 0.44 mg/kg",43.7 ng/mL
same,Cmax/D,"iv, 0.44 mg/kg",99.3 ng/mL/(mg/kg)
same,Tmax,"iv, 0.44 mg/kg",5.4 min
same,Vd,"iv, 0.44 mg/kg",10.6 L/kg
same,clearance,"iv, 0.44 mg/kg",513 mL/min/kg
same,half-life,"iv, 0.44 mg/kg",14.3 min
same,AUC(0-t),"iv, 0.44 mg/kg, AUC(0-6)",16.3 ng·h/mL
same,AUC(0-t),"iv, 0.44 mg/kg, AUC(0-t)",26.5 ng·h/mL
same,concentration at 0 h,"iv, 0.44 mg/kg",0.0551 ng/mL
same,concentration at 5 min,"iv, 0.44 mg/kg",43.7 ng/mL
same,concentration at 0.167 h,"iv, 0.44 mg/kg",14.8 ng/mL
same,concentration at 0.333 h,"iv, 0.44 mg/kg",6 ng/mL
same,concentration at 0.5 h,"iv, 0.44 mg/kg",4.06 ng/mL
same,concentration at 1 h,"iv, 0.44 mg/kg",0.268 ng/mL
same,concentration at 2 h,"iv, 0.44 mg/kg",0.274 ng/mL
same,concentration at 3 h,"iv, 0.44 mg/kg",0.095 ng/mL
same,concentration at 6 h,"iv, 0.44 mg/kg",0.648 ng/mL
same,concentration at 24 h,"iv, 0.44 mg/kg",0.405 ng/mL
same,AUC(0-6)/D,"po, 12 mg/kg",1.33 ± 0.483 hr*ng/mL/(mg/kg)
same,Cmax,"po, 12 mg/kg",14.7 ± 4.56 ng/mL
same,Cmax/D,"po, 12 mg/kg",1.22 ± 0.380 ng/mL/(mg/kg)
same,Oral AUC/dose,"po, 12 mg/kg",1.33 (h · ng/mL)/(mg/kg)
same,Tmax,"po, 12 mg/kg",60 min
same,AUC(0-t),"po, 12 mg/kg, AUC(0-t)",15.9 ± 5.8 ng·h/mL
same,concentration at 0 h,"po, 12 mg/kg",0 ng/mL
same,concentration at 5 min,"po, 12 mg/kg",2.59 ng/mL
same,concentration at 0.167 h,"po, 12 mg/kg",6.46 ng/mL
same,concentration at 0.333 h,"po, 12 mg/kg",10.1 ng/mL
same,concentration at 0.5 h,"po, 12 mg/kg",7.8 ng/mL
same,concentration at 1 h,"po, 12 mg/kg",14.1 ng/mL
same,concentration at 2 h,"po, 12 mg/kg",0.263 ng/mL
same,concentration at 3 h,"po, 12 mg/kg",0 ng/mL
same,concentration at 6 h,"po, 12 mg/kg",0 ng/mL
same,concentration at 24 h,"po, 12 mg/kg",0 ng/mL
same,AUC(0-6)/D,"po, 24 mg/kg",1.71 ± 0.748 hr*ng/mL/(mg/kg)
same,AUC(0-inf),"po, 24 mg/kg",27.7 ng·h/mL
same,Cmax,"po, 24 mg/kg",38 ± 26.1 ng/mL
same,Cmax/D,"po, 24 mg/kg",1.58 ± 1.09 ng/mL/(mg/kg)
same,Oral AUC/dose,"po, 24 mg/kg",1.71 (h · ng/mL)/(mg/kg)
same,Tmax,"po, 24 mg/kg",60 min
same,half-life,"po, 24 mg/kg",84.6 min
same,AUC(0-t),"po, 24 mg/kg, AUC(0-6)",26.2 ng·h/mL
same,AUC(0-t),"po, 24 mg/kg, AUC(0-t)",41 ± 17.9 ng·h/mL
same,concentration at 0 h,"po, 24 mg/kg",0 ng/mL
same,concentration at 5 min,"po, 24 mg/kg",5.32 ng/mL
same,concentration at 0.167 h,"po, 24 mg/kg",5.24 ng/mL
same,concentration at 0.333 h,"po, 24 mg/kg",7.13 ng/mL
same,concentration at 0.5 h,"po, 24 mg/kg",12 ng/mL
same,concentration at 1 h,"po, 24 mg/kg",36.8 ng/mL
same,concentration at 2 h,"po, 24 mg/kg",3.58 ng/mL
same,concentration at 3 h,"po, 24 mg/kg",1.71 ng/mL
